Experimental data reported in the kinase profiling compilation of Christmann-Franck et al. (2016).

Assays:
Test in all cases: radiometric filter-binding kinase assay, Kinase HotSpot
Settings in all cases: compound 0.5 µM; ATP 10 µM
MAPK13 (human) = MAPK13 (human) (UniProt O15264)
CDK9 CCNT1 (human) = CDK9 CCNT1 (human) (UniProt P50750+O60563)
CSNK1A1 (human) = CSNK1A1 (human) (UniProt P48729)
PRKCI (human) = PRKCI (human) (UniProt P41743)
STK24 (human) = STK24 (human) (UniProt Q9Y6E0)
GRK4 (human) = GRK4 (human) (UniProt P32298)
STK4 (human) = STK4 (human) (UniProt Q13043)
CDK4 CCND3 (human) = CDK4 CCND3 (human) (UniProt P30281+P11802)
[1] = target: TYK2 JH1 catalytic (human) (UniProt P29597)
MAPK11 (human) = MAPK11 (human) (UniProt Q15759)
RPS6KA5 KD2 (human) = RPS6KA5 KD2 (human) (UniProt O75582)
ERBB2 (human) = ERBB2 (human) (UniProt P04626)
MAPK3 (human) = MAPK3 (human) (UniProt P27361)
CDK6 CCND3 (human) = CDK6 CCND3 (human) (UniProt P30281+Q00534)
SGK3 (human) = SGK3 (human) (UniProt Q96BR1)
GSK3B (human) = GSK3B (human) (UniProt P49841)
GRK5 (human) = GRK5 (human) (UniProt P34947)
FYN (human) = FYN (human) (UniProt P06241)
AXL (human) = AXL (human) (UniProt P30530)
SGK2 (human) = SGK2 (human) (UniProt Q9HBY8)
FER (human) = FER (human) (UniProt P16591)
GSG2 (human) = GSG2 (human) (UniProt Q8TF76)
PBK (human) = PBK (human) (UniProt Q96KB5)
GRK6 (human) = GRK6 (human) (UniProt P43250)
RET (human) = RET (human) (UniProt P07949)
PRKCG (human) = PRKCG (human) (UniProt P05129)
FLT3 (human) = FLT3 (human) (UniProt P36888)
RPS6KA4 KD2 (human) = RPS6KA4 KD2 (human) (UniProt O75676)
RAF1 (human) = RAF1 (human) (UniProt P04049)
CAMK2A (human) = CAMK2A (human) (UniProt Q9UQM7)
PTK2B (human) = PTK2B (human) (UniProt Q14289)
EPHA8 (human) = EPHA8 (human) (UniProt P29322)
CHEK1 (human) = CHEK1 (human) (UniProt O14757)
MAPK14 (human) = MAPK14 (human) (UniProt Q16539)
CSNK2A2 (human) = CSNK2A2 (human) (UniProt P19784)
MET (human) = MET (human) (UniProt P08581)
PIM3 (human) = PIM3 (human) (UniProt Q86V86)
MARK4 (human) = MARK4 (human) (UniProt Q96L34)
VRK1 (human) = VRK1 (human) (UniProt Q99986)
MAPK9 (human) = MAPK9 (human) (UniProt P45984)
CDK1 CCNA2 (human) = CDK1 CCNA2 (human) (UniProt P06493+P20248)

Chain of RPS6KA5 KD2 (human) (O75582 whole entry, looked up): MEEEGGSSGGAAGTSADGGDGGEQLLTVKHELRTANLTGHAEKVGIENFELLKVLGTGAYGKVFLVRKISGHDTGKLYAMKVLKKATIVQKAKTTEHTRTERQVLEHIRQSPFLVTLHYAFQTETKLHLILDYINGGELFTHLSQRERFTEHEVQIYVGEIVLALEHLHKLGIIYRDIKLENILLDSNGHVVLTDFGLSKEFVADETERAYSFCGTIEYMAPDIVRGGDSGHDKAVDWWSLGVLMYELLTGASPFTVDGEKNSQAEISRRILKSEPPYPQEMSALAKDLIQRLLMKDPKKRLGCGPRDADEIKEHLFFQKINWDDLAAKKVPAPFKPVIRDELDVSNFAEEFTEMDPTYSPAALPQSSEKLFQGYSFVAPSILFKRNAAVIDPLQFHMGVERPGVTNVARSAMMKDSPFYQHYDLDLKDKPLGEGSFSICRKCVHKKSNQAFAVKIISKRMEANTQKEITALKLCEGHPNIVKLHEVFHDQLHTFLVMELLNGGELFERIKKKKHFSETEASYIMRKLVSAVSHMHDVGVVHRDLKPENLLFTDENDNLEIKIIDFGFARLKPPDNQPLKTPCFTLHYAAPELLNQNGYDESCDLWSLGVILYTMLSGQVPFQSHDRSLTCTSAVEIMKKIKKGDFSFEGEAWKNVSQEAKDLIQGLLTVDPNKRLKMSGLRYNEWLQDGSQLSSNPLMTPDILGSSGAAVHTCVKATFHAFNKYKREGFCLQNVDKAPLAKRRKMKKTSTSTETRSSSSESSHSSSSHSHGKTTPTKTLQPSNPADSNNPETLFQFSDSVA
Chain of ERBB2 (human) (P04626 whole entry, looked up): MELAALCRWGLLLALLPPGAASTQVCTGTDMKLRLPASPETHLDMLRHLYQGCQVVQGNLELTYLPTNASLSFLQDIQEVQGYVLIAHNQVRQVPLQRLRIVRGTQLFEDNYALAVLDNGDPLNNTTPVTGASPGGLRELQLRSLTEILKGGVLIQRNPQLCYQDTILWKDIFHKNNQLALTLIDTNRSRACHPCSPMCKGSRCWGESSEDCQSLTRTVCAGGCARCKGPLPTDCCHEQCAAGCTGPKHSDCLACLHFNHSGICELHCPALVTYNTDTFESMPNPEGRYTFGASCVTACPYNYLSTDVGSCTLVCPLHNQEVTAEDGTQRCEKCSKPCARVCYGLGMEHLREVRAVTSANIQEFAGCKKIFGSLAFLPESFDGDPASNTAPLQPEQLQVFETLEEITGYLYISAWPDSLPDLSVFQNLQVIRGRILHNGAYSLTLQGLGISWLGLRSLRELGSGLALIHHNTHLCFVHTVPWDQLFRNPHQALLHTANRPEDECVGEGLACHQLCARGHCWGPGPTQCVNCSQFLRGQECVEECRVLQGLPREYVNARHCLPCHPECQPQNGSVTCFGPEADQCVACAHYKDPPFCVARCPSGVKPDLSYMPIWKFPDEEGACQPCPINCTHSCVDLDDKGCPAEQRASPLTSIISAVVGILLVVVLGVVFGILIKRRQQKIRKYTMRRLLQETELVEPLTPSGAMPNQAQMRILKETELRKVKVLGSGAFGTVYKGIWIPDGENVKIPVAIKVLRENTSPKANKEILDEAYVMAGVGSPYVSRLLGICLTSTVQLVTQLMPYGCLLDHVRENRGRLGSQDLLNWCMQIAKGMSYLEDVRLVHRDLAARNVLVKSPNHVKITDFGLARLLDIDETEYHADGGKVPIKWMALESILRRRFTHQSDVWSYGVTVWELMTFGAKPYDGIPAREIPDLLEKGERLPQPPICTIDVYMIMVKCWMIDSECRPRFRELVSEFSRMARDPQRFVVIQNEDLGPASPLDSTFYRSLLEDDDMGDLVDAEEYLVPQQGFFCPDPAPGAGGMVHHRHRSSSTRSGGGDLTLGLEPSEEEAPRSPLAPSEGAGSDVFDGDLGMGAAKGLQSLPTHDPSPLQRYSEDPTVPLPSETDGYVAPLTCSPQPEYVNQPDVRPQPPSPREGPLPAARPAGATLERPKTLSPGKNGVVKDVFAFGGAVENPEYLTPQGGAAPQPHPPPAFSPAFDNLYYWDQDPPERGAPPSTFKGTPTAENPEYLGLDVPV
Chain of TYK2 JH1 catalytic (human) (P29597 whole entry, looked up): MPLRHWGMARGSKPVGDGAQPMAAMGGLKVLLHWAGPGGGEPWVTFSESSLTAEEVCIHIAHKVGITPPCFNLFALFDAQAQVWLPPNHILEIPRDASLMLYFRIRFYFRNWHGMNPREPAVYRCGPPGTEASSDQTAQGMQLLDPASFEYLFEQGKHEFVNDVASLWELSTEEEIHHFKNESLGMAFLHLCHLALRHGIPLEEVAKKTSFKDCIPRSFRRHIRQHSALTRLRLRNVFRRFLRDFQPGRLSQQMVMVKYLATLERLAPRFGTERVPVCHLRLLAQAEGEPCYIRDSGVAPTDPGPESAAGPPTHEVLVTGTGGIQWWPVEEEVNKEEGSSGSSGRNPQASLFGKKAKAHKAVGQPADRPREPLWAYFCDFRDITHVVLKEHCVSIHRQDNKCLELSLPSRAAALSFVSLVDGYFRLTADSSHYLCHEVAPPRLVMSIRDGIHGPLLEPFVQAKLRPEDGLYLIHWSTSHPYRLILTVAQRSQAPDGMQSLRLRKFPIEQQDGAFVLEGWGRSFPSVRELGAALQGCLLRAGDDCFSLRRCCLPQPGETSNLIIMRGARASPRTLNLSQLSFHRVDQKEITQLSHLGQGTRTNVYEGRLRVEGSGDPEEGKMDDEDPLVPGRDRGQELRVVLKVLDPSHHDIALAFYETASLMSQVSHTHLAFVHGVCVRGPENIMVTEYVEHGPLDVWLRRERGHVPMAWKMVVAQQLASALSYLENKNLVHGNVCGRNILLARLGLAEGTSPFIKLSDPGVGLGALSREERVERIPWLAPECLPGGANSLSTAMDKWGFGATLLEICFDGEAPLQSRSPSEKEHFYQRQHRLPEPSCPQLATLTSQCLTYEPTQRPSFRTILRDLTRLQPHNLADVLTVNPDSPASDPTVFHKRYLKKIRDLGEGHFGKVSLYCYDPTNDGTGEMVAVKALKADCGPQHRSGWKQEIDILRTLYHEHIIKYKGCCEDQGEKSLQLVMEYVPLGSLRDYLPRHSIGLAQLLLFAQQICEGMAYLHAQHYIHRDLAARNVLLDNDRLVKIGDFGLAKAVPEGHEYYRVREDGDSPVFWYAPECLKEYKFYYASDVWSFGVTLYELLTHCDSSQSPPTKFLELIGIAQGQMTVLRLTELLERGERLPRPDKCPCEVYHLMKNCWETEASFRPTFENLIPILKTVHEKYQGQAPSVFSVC
Chain of GSK3B (human) (P49841 whole entry, looked up): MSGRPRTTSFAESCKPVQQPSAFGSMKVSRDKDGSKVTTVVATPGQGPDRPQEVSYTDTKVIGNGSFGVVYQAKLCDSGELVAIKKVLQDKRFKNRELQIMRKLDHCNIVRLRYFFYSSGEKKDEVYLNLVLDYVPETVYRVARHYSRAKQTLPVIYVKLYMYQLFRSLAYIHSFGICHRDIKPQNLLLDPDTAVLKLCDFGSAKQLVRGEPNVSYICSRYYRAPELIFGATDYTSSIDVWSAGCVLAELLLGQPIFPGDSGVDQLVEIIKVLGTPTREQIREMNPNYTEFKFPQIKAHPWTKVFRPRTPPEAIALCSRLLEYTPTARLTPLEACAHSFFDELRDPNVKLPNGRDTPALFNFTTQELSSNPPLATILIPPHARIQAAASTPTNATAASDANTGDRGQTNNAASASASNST
Chain of FER (human) (P16591 whole entry, looked up): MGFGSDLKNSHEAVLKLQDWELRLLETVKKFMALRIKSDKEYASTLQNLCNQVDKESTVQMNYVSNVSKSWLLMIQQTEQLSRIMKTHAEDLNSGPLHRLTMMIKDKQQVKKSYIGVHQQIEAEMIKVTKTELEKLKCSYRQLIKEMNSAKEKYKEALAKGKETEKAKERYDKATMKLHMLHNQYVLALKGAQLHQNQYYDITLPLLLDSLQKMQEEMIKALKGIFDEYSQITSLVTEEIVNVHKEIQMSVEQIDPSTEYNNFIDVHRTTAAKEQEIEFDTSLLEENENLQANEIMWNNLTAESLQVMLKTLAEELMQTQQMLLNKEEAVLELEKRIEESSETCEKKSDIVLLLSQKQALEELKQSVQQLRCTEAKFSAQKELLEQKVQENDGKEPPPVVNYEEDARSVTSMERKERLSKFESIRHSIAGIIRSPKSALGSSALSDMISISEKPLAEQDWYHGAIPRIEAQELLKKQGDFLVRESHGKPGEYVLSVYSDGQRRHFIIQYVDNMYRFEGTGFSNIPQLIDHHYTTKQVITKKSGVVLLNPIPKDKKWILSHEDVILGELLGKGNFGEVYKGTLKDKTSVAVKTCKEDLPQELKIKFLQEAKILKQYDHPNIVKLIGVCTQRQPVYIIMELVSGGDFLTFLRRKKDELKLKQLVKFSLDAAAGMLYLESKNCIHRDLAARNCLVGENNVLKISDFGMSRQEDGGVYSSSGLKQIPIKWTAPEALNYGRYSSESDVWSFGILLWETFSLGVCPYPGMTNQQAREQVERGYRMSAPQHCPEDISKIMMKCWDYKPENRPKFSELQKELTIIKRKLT
Chain of SGK3 (human) (Q96BR1 whole entry, looked up): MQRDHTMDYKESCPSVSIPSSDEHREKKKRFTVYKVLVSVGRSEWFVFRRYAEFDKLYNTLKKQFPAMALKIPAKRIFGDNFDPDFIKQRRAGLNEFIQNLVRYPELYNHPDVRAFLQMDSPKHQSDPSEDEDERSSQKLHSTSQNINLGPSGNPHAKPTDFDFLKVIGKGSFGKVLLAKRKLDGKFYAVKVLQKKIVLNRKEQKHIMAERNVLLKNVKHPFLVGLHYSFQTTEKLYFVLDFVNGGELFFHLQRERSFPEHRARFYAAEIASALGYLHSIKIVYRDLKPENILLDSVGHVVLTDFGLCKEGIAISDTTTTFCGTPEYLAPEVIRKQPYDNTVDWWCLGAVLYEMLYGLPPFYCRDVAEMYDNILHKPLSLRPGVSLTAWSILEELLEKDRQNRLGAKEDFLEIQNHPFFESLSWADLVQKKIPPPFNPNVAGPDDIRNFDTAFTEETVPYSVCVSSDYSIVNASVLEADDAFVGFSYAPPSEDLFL

SMILES: CCCCc1c(-c2ccc(O)cc2)[nH]c2nccnc12
- residual activity (MAPK13 (human)): 101%
- residual activity (CDK9 CCNT1 (human)): 45.9%
- residual activity (CSNK1A1 (human)): 92.9%
- residual activity (PRKCI (human)): 99.4%
- residual activity (STK24 (human)): 83.6%
- residual activity (GRK4 (human)): 101%
- residual activity (STK4 (human)): 78.3%
- residual activity (CDK4 CCND3 (human)): 71%
- residual activity [1]: 43.4%
- residual activity (MAPK11 (human)): 103%
- residual activity (RPS6KA5 KD2 (human)): 101%
- residual activity (ERBB2 (human)): 97.7%
- residual activity (MAPK3 (human)): 101%
- residual activity (CDK6 CCND3 (human)): 84.6%
- residual activity (SGK3 (human)): 95.3%
- residual activity (GSK3B (human)): 75.4%
- residual activity (GRK5 (human)): 104%
- residual activity (FYN (human)): 62.1%
- residual activity (AXL (human)): 103%
- residual activity (SGK2 (human)): 99.4%
- residual activity (FER (human)): 55.6%
- residual activity (GSG2 (human)): 65.3%
- residual activity (PBK (human)): 75.6%
- residual activity (GRK6 (human)): 83.5%
- residual activity (RET (human)): 52.6%
- residual activity (PRKCG (human)): 95.1%
- residual activity (FLT3 (human)): 45.3%
- residual activity (RPS6KA4 KD2 (human)): 87.5%
- residual activity (RAF1 (human)): 106%
- residual activity (CAMK2A (human)): 97.8%
- residual activity (PTK2B (human)): 99%
- residual activity (EPHA8 (human)): 97.4%
- residual activity (CHEK1 (human)): 92.9%
- residual activity (MAPK14 (human)): 102%
- residual activity (CSNK2A2 (human)): 94.7%
- residual activity (MET (human)): 82.7%
- residual activity (PIM3 (human)): 72.8%
- residual activity (MARK4 (human)): 84.6%
- residual activity (VRK1 (human)): 87.9%
- residual activity (MAPK9 (human)): 90.2%
- residual activity (CDK1 CCNA2 (human)): 60.3%

SMILES: O=S(=O)(NCCNC/C=C/c1ccc(Br)cc1)c1cccc2cnccc12
- residual activity (MAPK13 (human)): 101%
- residual activity (CDK9 CCNT1 (human)): 87.8%
- residual activity (CSNK1A1 (human)): 57.9%
- residual activity (PRKCI (human)): 88.4%
- residual activity (STK24 (human)): 72%
- residual activity (GRK4 (human)): 95.8%
- residual activity (STK4 (human)): 92.6%
- residual activity (CDK4 CCND3 (human)): 106%
- residual activity [1]: 103%
- residual activity (MAPK11 (human)): 87.2%
- residual activity (RPS6KA5 KD2 (human)): 39.4%
- residual activity (ERBB2 (human)): 119%
- residual activity (MAPK3 (human)): 84.8%
- residual activity (CDK6 CCND3 (human)): 96.6%
- residual activity (SGK3 (human)): 78.8%
- residual activity (GSK3B (human)): 83.5%
- residual activity (GRK5 (human)): 127%
- residual activity (FYN (human)): 107%
- residual activity (AXL (human)): 112%
- residual activity (SGK2 (human)): 84.2%
- residual activity (FER (human)): 97.6%
- residual activity (GSG2 (human)): 55.1%
- residual activity (PBK (human)): 107%
- residual activity (GRK6 (human)): 93.5%
- residual activity (RET (human)): 102%
- residual activity (PRKCG (human)): 83.8%
- residual activity (FLT3 (human)): 89.6%
- residual activity (RPS6KA4 KD2 (human)): 38.8%
- residual activity (RAF1 (human)): 96.4%
- residual activity (CAMK2A (human)): 102%
- residual activity (PTK2B (human)): 85%
- residual activity (EPHA8 (human)): 118%
- residual activity (CHEK1 (human)): 90.8%
- residual activity (MAPK14 (human)): 105%
- residual activity (CSNK2A2 (human)): 86.6%
- residual activity (PIM3 (human)): 98.3%
- residual activity (MARK4 (human)): 94.3%
- residual activity (VRK1 (human)): 80.1%
- residual activity (MAPK9 (human)): 93.4%
- residual activity (CDK1 CCNA2 (human)): 95.3%
